Columns and labels:
brain tissue = assay: Gene expression in brain tissue; format: in vivo, mice; conditions: mouse brain tissue
Text: Similar effects have been observed in non-heart tissue.

IR rat heart = assay: Isolated working rat heart I/R: cardiac function, infarct size, apoptosis (Example 7); format: in vivo, Sprague-Dawley rats; conditions: resveratrol 5 mg/kg/day or Longevinex 100 mg/kg/day, 21 days
Method: Methods. Animals. […] Hattori et al., Am. J. Physiol. Heart. Circ. […] Mukherjee et al., Can. J. Pharmol. […] Isolated working heart preparation and assessment of cardiac function. After completing the feeding protocol, the animals were anesthetized with sodium pentobarbital (80 mg/kg, i.p.) (Abbott Laboratories, North Chicago, Ill., USA), and […] heparin sodium (500 IU/kg, i.v.) (Elkins-Sinn Inc., Cherry Hill, N.J., USA) was used as an anticoagulant. […] At the end of 10 min, baseline cardiac function like heart rate (HR, beats/min), aortic flow (AF, ml/min), coronary flow (CF, ml/min), left ventricular developed pressure (LVDP, mmHg) and first derivative of developed pressure (LVdp/dt, mmHg/sec) were recorded. […] Infarct size was measured according to the TTC method. […] To quantitate the areas of infarct in pixels, standard NIH image program was used. The infarct size was quantified and expressed in pixels. […] The fluorescence staining was viewed with a fluorescence microscope (AXIOPLAN2 IMAGING, Carl Zeiss Microimaging Inc., New York) at […] for green fluorescence of fluorescein and at 620 nm for red fluorescence of propidium iodide. The number of apoptotic cells was counted and expressed as a percent of total myocyte population.

[1] = tested on: biological processes (GO), cardiac tissue; assay: Biological processes (GO) affected by altered gene expression in cardiac tissue; format: in vivo, mice

Q: Which results are given for `Oc1ccc(/C=C/c2cc(O)cc(O)c2)cc1` [resveratrol, 3,4′,5-trihydroxy-trans-stilbene]?
A: genes with altered expression, treatment and calorie reduced diets, number (brain tissue): 10 genes; cardiac output function (aortic flow, coronary flow, LVDP, LVmax dp/dt) (IR rat heart; 2 hour reperfusion): improved; myocardial infarct size and cardiomyocyte apoptosis (IR rat heart; 2 h reperfusion): reduce; genes changed, GO: 0006596 Polyamine Biosynthetic Process ([1]; 5 genes in series): 2; genes changed, GO: 0006625 Protein Targeting To Peroxisome ([1]; 5 genes in series): 2; genes changed, GO: 0006983 ER Overload Response ([1]; 5 genes in series): 2; genes changed, GO: 0006353 Transcription Termination ([1]; 6 genes in series): 2; genes changed, GO: 0045351 Interferon Type I Biosynthetic Process ([1]; 6 genes in series): 2; genes changed, GO: 0001958 Endochondral Ossification ([1]; 8 genes in series): 2; genes changed, GO: 0007091 Mitotic Metaphase/Anaphase Transition ([1]; 8 genes in series): 2; genes changed, GO: 0007143 Female Meiosis ([1]; 8 genes in series): 2; genes changed, GO: 0045577 Regulation Of B Cell Differentiation ([1]; 8 genes in series): 2; genes changed, GO: 0046330 Positive Regulation Of JNK Cascade ([1]; 8 genes in series): 2; genes changed, GO: 0006825 Copper Ion Transport ([1]; 9 genes in series): 3; genes changed, GO: 0033554 Cellular Response To Stress ([1]; 14 genes in series): 3; genes changed, GO: 0006888 ER To Golgi Vesicle-Mediated Transport ([1]; 16 genes in series): 3; genes changed, GO: 0006919 Caspase Activation ([1]; 16 genes in series): 3; genes changed, GO: 0000723 Telomere Maintenance ([1]; 17 genes in series): 3; genes changed, GO: 0030041 Actin Filament Polymerization ([1]; 17 genes in series): 3; genes changed, GO: 0043280 Positive Regulation Of Caspase Activity ([1]; 17 genes in series): 3; genes changed, GO: 0051016 Barbed-End Actin Filament Capping ([1]; 17 genes in series): 3; genes changed, GO: 0008299 Isoprenoid Biosynthetic Process ([1]; 19 genes in series): 3; genes changed, GO: 0006446 Regulation Of Translational Initiation ([1]; 20 genes in series): 4; genes changed, GO: 0043281 Regulation Of Caspase Activity ([1]; 27 genes in series): 5; genes changed, GO: 0008064 Regulation Of Actin Polymerization And/Or Depolymerization ([1]; 30 genes in series): 4; genes changed, GO: 0050673 Epithelial Cell Proliferation ([1]; 30 genes in series): 4; genes changed, GO: 0005977 Glycogen Metabolic Process ([1]; 31 genes in series): 7; genes changed, GO: 0030832 Regulation Of Actin Filament Length ([1]; 31 genes in series): 4; genes changed, GO: 0051258 Protein Polymerization ([1]; 32 genes in series): 6; genes changed, GO: 0006112 Energy Reserve Metabolic Process ([1]; 35 genes in series): 7; genes changed, GO: 0048193 Golgi Vesicle Transport ([1]; 37 genes in series): 6; genes changed, GO: 0008154 Actin Polymerization And/Or Depolymerization ([1]; 39 genes in series): 6; genes changed, GO: 0006413 Translational Initiation ([1]; 40 genes in series): 6; genes changed, GO: 0043085 Positive Regulation Of Enzyme Activity ([1]; 40 genes in series): 5; genes changed, GO: 0045454 Cell Redox Homeostasis ([1]; 40 genes in series): 6; genes changed, GO: 0005976 Polysaccharide Metabolic Process ([1]; 42 genes in series): 9; genes changed, GO: 0007018 Microtubule-Based Movement ([1]; 72 genes in series): 9; genes changed, GO: 0007178 Transmembrane Receptor Protein Serine/Threonine Kinase Signaling Pathway ([1]; 75 genes in series): 7; genes changed, GO: 0006511 Ubiquitin-Dependent Protein Catabolic Process ([1]; 109 genes in series): 9; genes changed, GO: 0019941 Modification-Dependent Protein Catabolic Process ([1]; 111 genes in series): 9; genes changed, GO: 0006457 Protein Folding ([1]; 124 genes in series): 13; genes changed, GO: 0007017 Microtubule-Based Process ([1]; 155 genes in series): 12; genes changed, GO: 0006605 Protein Targeting ([1]; 161 genes in series): 12; genes changed, GO: 0008380 RNA Splicing ([1]; 162 genes in series): 12; genes changed, GO: 0006281 DNA Repair ([1]; 178 genes in series): 13; genes changed, GO: 0006974 Response To DNA Damage Stimulus ([1]; 217 genes in series): 15; genes changed, GO: 0044262 Cellular Carbohydrate Metabolic Process ([1]; 221 genes in series): 18; genes changed, GO: 0050790 Regulation Of Catalytic Activity ([1]; 241 genes in series): 21; genes changed, GO: 0005975 Carbohydrate Metabolic Process ([1]; 316 genes in series): 21; genes changed, GO: 0007264 Small Gtpase Mediated Signal Transduction ([1]; 320 genes in series): 22; genes changed, GO: 0006412 Translation ([1]; 338 genes in series): 25; genes changed, GO: 0006512 Ubiquitin Cycle ([1]; 356 genes in series): 27; genes changed, GO: 0006886 Intracellular Protein Transport ([1]; 357 genes in series): 26; genes changed, GO: 0006091 Generation Of Precursor Metabolites And Energy ([1]; 390 genes in series): 24; genes changed, GO: 0007010 Cytoskeleton Organization And Biogenesis ([1]; 403 genes in series): 26; genes changed, GO: 0046907 Intracellular Transport ([1]; 523 genes in series): 43; genes changed, GO: 0009059 Macromolecule Biosynthetic Process ([1]; 525 genes in series): 35; genes changed, GO: 0015031 Protein Transport ([1]; 581 genes in series): 38; genes changed, GO: 0045184 Establishment Of Protein Localization ([1]; 610 genes in series): 38; genes changed, GO: 0051649 Establishment Of Cellular Localization ([1]; 653 genes in series): 45; genes changed, GO: 0008104 Protein Localization ([1]; 663 genes in series): 38; genes changed, GO: 0044249 Cellular Biosynthetic Process ([1]; 710 genes in series): 45; genes changed, GO: 0006996 Organelle Organization And Biogenesis ([1]; 897 genes in series): 53; genes changed, GO: 0009058 Biosynthetic Process ([1]; 979 genes in series): 60; share of the 220 biological processes with affected genes, calorie restricted mice ([1]; mouse cardiac tissue): failed to affect any genes in any of these processes

Reference: patent US20140011889A1, “Resveratrol-Containing Compositions and Methods of Use for Cardiac-Related Diseases” (Resveratrol Partners, LLC, priority 2010, published 2014)
